Reference: patent US20220169654A1, “New Organic Compounds” (Servier Pharmaceuticals LLC, priority 2020, published 2022)
pIC50: −log10 of the molar value.

Tests used:
MAT2A homodimer = biological target: T1, MAT2A homodimer (Homo sapiens, UniProt P31153); test: MAT2A inhibition (biochemical, liberated phosphate, PiColorLock Gold); settings: recombinant MAT2A homodimer; IC50 bin with Max Inh.; read-out: Enzyme Inhibition Bin
T1 construct: inferred from Ni sepharose purification with imidazole elution; made in house; host or cells: Sf9 insect cells, baculovirus (Bac to Bac, pFASTBAC1)
T1 sequence (P31153 whole entry): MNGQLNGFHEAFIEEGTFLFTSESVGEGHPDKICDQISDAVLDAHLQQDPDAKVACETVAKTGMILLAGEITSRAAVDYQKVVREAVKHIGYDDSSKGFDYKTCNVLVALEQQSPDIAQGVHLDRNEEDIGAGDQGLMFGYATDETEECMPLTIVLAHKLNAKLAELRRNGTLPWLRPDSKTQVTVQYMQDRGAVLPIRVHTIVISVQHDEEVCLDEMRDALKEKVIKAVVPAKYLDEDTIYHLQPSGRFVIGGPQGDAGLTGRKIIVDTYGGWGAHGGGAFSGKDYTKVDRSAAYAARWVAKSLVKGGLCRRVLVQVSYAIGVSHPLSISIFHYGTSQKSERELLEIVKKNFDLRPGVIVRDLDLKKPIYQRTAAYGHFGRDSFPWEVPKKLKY
Outline: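 Enzyme at 4 μg/mL and compound equilibrated 60 min at 25 °C, then 60 min reaction after adding substrate mix (500 μM ATP, 400 μM methionine). Released phosphate quantified by colorimetric kit against a phosphate standard curve to give IC50. Secondary format used 1 μg/mL enzyme with 5 h incubation.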

HCT116 MTAP−/− = test: Inhibition of cellular proliferation, 4 days, Cell Titer Glo, HCT116 MTAP−/−; assay type: cell-based; settings: Homo sapiens, HCT-116, 96 h, IC50 bin with Max Inh., read-out: 4 Day Relative Growth Inhibition (MTAP −/−)
Outline: (§1)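 IC50 derived from blank-corrected ATP luminescence (Cell Titer Glo) expressed relative to within-plate 0.2% DMSO wells. Compound, as a 10-point 3-fold series, was added 24 h after seeding the MTAP+/+ or MTAP−/− HCT116 cells and incubated 4 days at 37° C./5% CO2.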

[1] = tested on: SAM in HCT116 human colon carcinoma cell line with MTAP gene deleted (MTAP −/−); test: Cellular assay of target engagement (SAM), LC-MS/MS, 72 hrs; assay type: cell-based; settings: HCT-116, IC50 bin with Max Inh., read-out: Cell 72 h SAM Inhibition (MTAP −/−)
Outline: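 SAM levels were quantified by LC-MS/MS (m/z 399.2→250.1, d3-SAM internal standard) from cold methanol/acetic acid extracts, yielding IC50. Compound was applied as a 10-point 3-fold series for 72 hrs to MTAP −/− HCT116 cells seeded 24 hours before.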

HCT116 MTAP+/+ = test: Inhibition of cellular proliferation, 4 days, Cell Titer Glo, HCT116 MTAP+/+; assay type: cell-based; settings: Homo sapiens, HCT-116, 96 h, IC50 bin with Max Inh., read-out: 4 Day Relative Growth Inhibition (MTAP +/+)
Outline: as §1

pIC50 (MAT2A homodimer) | pIC50 (HCT116 MTAP−/−) | pIC50 [1] | pIC50 (HCT116 MTAP+/+) | Structure (SMILES)
6.00 to 7.00 | < 6.00 | < 6.00 | < 6.00 | CN(C)S(=O)(=O)c1cn(CC2CC2)c2c(-c3ccc(C4CC4)nc3)c(=O)n(-c3ccc4nn(C)cc4c3)nc12 [Example 178, 5-(cyclopropylmethyl)-4-(6-cyclopropylpyridin-3-yl)-N,N-dimethyl-2-(2-methyl-2H-indazol-5-yl)-3-oxo-3,5-dihydro-2H-pyrrolo[3,2-c]pyridazine-7-sulfonamide]
> 7.00 | > 7.00 | > 7.00 | < 6.00 | Cn1cc2cc(-n3nc4c(S(N)(=O)=O)cn(CC5CC5)c4c(-c4ccc(C5CC5)cc4)c3=O)ccc2n1 [Example 180, 5-(cyclopropylmethyl)-4-(4-cyclopropylphenyl)-2-(2-methyl-2H-indazol-5-yl)-3-oxo-3,5-dihydro-2H-pyrrolo[3,2-c]pyridazine-7-sulfonamide]
> 7.00 | 6.00 to 7.00 | > 7.00 | < 6.00 | Cn1cc2cc(-n3nc4c(S(N)(=O)=O)cn(CC5CC5)c4c(-c4ccc(OC(F)F)cc4)c3=O)ccc2n1 [Example 184, 5-(cyclopropylmethyl)-4-(4-(difluoromethoxy)phenyl)-2-(2-methyl-2H-indazol-5-yl)-3-oxo-3,5-dihydro-2H-pyrrolo[3,2-c]pyridazine-7-sulfonamide]
> 7.00 | 6.00 to 7.00 | 6.00 to 7.00 | < 6.00 | Cn1cc2cc(-n3nc4c(S(N)(=O)=O)cn(CC5CC5)c4c(-c4ccc(C5CC5)nc4)c3=O)ccc2n1 [Example 185, 5-(cyclopropylmethyl)-4-(6-cyclopropylpyridin-3-yl)-2-(2-methyl-2H-indazol-5-yl)-3-oxo-3,5-dihydro-2H-pyrrolo[3,2-c]pyridazine-7-sulfonamide]
> 7.00 | > 7.00 | > 7.00 | 6.00 to 7.00 | Cn1cc2cc(-n3nc4ncn(CC5CC5)c4c(-c4ccc(OC(F)F)cc4)c3=O)ccc2n1 [Example 186, 5-(cyclopropylmethyl)-4-[4-(difluoromethoxy)phenyl]-2-(2-methyl-2H-indazol-5-yl)-2H,3H,5H-imidazo[4,5-c]pyridazin-3-one]
> 7.00 | 6.00 to 7.00 | 6.00 to 7.00 | < 6.00 | Cc1ccc(-c2c(=O)n(-c3ccc4nn(C)cc4c3)nc3ncn(CC4CC4)c23)cn1 [Example 187, 5-(cyclopropylmethyl)-2-(2-methyl-2H-indazol-5-yl)-4-(6-methylpyridin-3-yl)-2,5-dihydro-3H-imidazo[4,5-c]pyridazin-3-one]
> 7.00 | > 7.00 | > 7.00 | 6.00 to 7.00 | Cn1cc2cc(-n3nc4ncn(CC5CC5)c4c(-c4ccc(Cl)cc4)c3=O)ccc2n1 [Example 188, 4-(4-chlorophenyl)-5-(cyclopropylmethyl)-2-(2-methyl-2H-indazol-5-yl)-2,5-dihydro-3H-imidazo[4,5-c]pyridazin-3-one]

Structure (SMILES) | pIC50 (MAT2A homodimer) | pIC50 (HCT116 MTAP−/−) | pIC50 [1] | pIC50 (HCT116 MTAP+/+)
CNC(=O)c1cn(CC2CC2)c2c(-c3ccc(OC)cc3)c(=O)n(-c3ccc4nn(C)cc4c3)nc12 [Example 176, 5-(cyclopropylmethyl)-4-(4-methoxyphenyl)-N-methyl-2-(2-methyl-2H-indazol-5-yl)-3-oxo-3,5-dihydro-2H-pyrrolo[3,2-c]pyridazine-7-carboxamide] | > 7.00 | > 7.00 | > 7.00 | 6.00 to 7.00
CNC(=O)c1cn(CC2CC2)c2c(-c3ccc(C)nc3)c(=O)n(-c3ccc4nn(C)cc4c3)nc12 [Example 177, 5-(cyclopropylmethyl)-N-methyl-2-(2-methyl-2H-indazol-5-yl)-4-(6-methylpyridin-3-yl)-3-oxo-3,5-dihydro-2H-pyrrolo[3,2-c]pyridazine-7-carboxamide] | > 7.00 | 6.00 to 7.00 | > 7.00 | < 6.00
